# Laboratory results as given in patent US8710017B2, “Human and mouse targeting peptides identified by phage display” (priority 2000, dated 2014).
# Peptide text beside a SMILES is read from it.
# What was measured:
# HUVECs [1] = assay: HUVEC chemotaxis assay (Boyden chamber, VEGF-A); type: cell-based, human
# Procedure: FIG. 24. […] (SEQ ID NO:123) inhibits HUVEC migration. HUVECs were stimulated with VEGF-A (10 ng/ml). The assay was performed in a Boyden microchemotaxis chamber, and cells were allowed to migrate through an 8-μm pore filter for 5 h at 37° C. […] (SEQ ID NO:124) (control) and […] (SEQ ID NO:123) peptides were tested at 1 mM concentration. Migrated cells were stained and five high-power fields (magnitude 100×) for each microwell were counted. Error bars are the standard error of the means of triplicate microwells.
# A cell migration assay was performed in a 48-well microchemotaxis chamber (NeuroProbe, Gaithersburg, Md.) according to Bussolini et al. (1995). Polyvinylpyrrolidone-free polycarbonate filters (Nucleopore, Cambridge, Mass.) with 8-μm pores were coated with 1% gelatin for 10 min at room temperature and equilibrated in M199 medium supplemented with 2% FCS. […] (SEQ ID NO:123) or control […] (SEQ ID NO:124) peptide (1 mM) was placed in the lower compartment of a Boyden chamber in M199 medium supplemented with 2% FCS and 10 ng/ml VEGF-A (R&D System). Subconfluent cultures that had been starved overnight were harvested in PBS containing 2.5 mM EDTA, washed once in PBS, and resuspended in M199 medium containing 2% FCS at a final concentration of 2×10^6 cells/ml. After the filter was placed between the lower and upper chambers, 50 μl of the cell suspension was seeded in the upper compartment, and cells were allowed to migrate for 5 h at 37° C. in a humidified atmosphere with 5% CO2. The filter was then removed, and cells on the upper side were scraped with a rubber policeman. Migrated cells were fixed in methanol and stained with Giemsa solution (Diff-Quick, Baxter Diagnostics, Rome, Italy). Five random high-power fields (magnitude 100×) were counted in each well. Each assay was run in triplicate.
# HUVECs [2] = assay: HUVEC cell growth assay (crystal violet, VEGF-A); type: cell-based, human
# Procedure: FIG. 25. […] (SEQ ID NO:123) inhibits HUVEC proliferation. Cells were stimulated with VEGF-A (10 ng/ml), and growth was evaluated at the indicated times by a colorimetric assay based on crystal violet staining. Error bars are the standard error of the means of triplicate wells. Each experiment was repeated at least twice with similar results.
# HUVECs were seeded in 48-well plates (10^4 cells/well) and allowed to attach for 24 h in complete M199 medium. The cells were then starved in M199 medium containing 2% FCS for 24 h. […] (SEQ ID NO:123) or control […] (SEQ ID NO:124) peptide (1 mM) was added to the wells in medium containing 2% FCS and 10 ng/ml VEGF-A (R&D System, Abingdom, UK). After incubation for the indicated times, cells were fixed in 2.5% glutaraldehyde, stained with 0.1% crystal violet in 20% methanol, and solubilized in 10% acetic acid. All treatments were done in triplicate. Cell growth was evaluated by measuring the O.D. at 590 nm in a microplate reader (Biorad, Hercules, Calif.). A calibration curve was established and a linear correlation between O.D. and cell counts was observed between 10^3 and 10^5 cells.
# [3] = target: T1, Aminopeptidase A (APA, EC 3.4.11.7) (Homo sapiens, UniProt Q07075); assay: APA enzyme assay (α-glutamyl-p-nitroanilide, SK-RC-49/APA cells); type: biochemical; conditions: highest concentration tested
# T1 construct: The renal carcinoma cell line SK-RC-49 was transfected with an expression vector encoding full-length APA cDNA; expressed in transfected cells; host or cells: SK-RC-49 renal carcinoma cells, stably transfected (G418)
# HUVECs [4] = assay: Three-dimensional Matrigel culture of HUVECs (capillary-like network); type: cell-based, human; conditions: not shown
# Procedure: Matrigel (Collaborative Research, Bedford, Mass.) was added at 100 μl per well to 48-well tissue culture plates and allowed to solidify for 10 min at 37° C. HUVECs were starved for 24 h in M199 medium supplemented with 2% FCS before being harvested in PBS containing 2.5 mM EDTA. 10^4 cells were gently added to each of the triplicate wells and allowed to adhere to the gel coating for 30 min at 37° C. Then, medium was replaced with indicated concentrations of […] (SEQ ID NO:123) or […] (SEQ ID NO:124) peptides in complete medium. The plates were photographed after 24 h with an inverted microscope (Canon). The assay was repeated three times.
# APA (SK-RC-49/APA cells) = target: T2, APA (SK-RC-49/APA cells) (Homo sapiens, UniProt Q07075); assay: Phage binding specificity assay on SK-RC-49/APA cells; type: cell-based; conditions: soluble peptide in binding medium, not shown
# T2 construct: The renal carcinoma cell line SK-RC-49 was transfected with an expression vector encoding full-length APA cDNA; expressed in transfected cells; host or cells: SK-RC-49 renal carcinoma cells, stably transfected (G418)
# Procedure: The cell binding assay was performed with an input of 10^9 TU as described for the cell panning. The specificity was confirmed by adding […] (SEQ ID NO:123) peptide to the binding medium in increasing concentrations. For phage binding on immunocaptured APA, wells were blocked for 1 h at room temperature with PBS/3% BSA and incubated with 10^9 TU for 1 h at room temperature in 50 μl PBS/3% BSA. After eight washes in PBS/1% BSA/0.01% Tween-20 and two washes in PBS, phage were rescued by adding 200 μl of exponentially growing K91Kan E. coli. Each experiment was repeated at least three times.
# [5] = tested on: chicken chorioallantoic membrane (CAM); assay: CAM assay for angiogenesis; type: in vivo
# Procedure: In vivo angiogenesis was evaluated by a CAM assay (Ribatti et al., 1994). Fertilized eggs from White Leghorn chickens were maintained in constant humidity at 37° C. On the third day of incubation, a square window was opened in the eggshell and 2-3 ml of albumen was removed to detach the developing CAM from the shell. The window was sealed with a glass plate of the same size and the eggs were returned to the incubator. At day 8, 1 mm^3 sterilized gelatin sponges (Gelfoam, Upjohn Co, Kalamazoo, Milan) were adsorbed with VEGF-A (20 ng, R&D System) and either […] (SEQ ID NO:123) or control […] (SEQ ID NO:124) peptide (1 mM) in 3 μl PBS and implanted on the top of the growing CAMs under sterile conditions. CAMs were examined daily until day 12 and photographed in ovo with a Leica stereomicroscope. Capillaries emerging from the sponge were counted. The assay was repeated twice.
# [6] = target: T3, β3 integrin cytoplasmic domain (Homo sapiens, UniProt P05106); assay: Binding of Fyn-phosphorylated phage to β3 cytoplasmic domain; conditions: phage phosphorylated by Fyn versus unphosphorylated phage
# T3 construct: recombinant fusion proteins containing β3 or β5 cytoplasmic domains
# T3 sequence (P05106 742-788 limits assumed): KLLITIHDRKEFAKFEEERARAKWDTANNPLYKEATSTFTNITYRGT
# Procedure: Phosphorylation of peptide libraries with src family protein kinases (Fyn, c-Src, Lyn, and Syc) and serine/threonine kinases such as a MAP kinase were performed as described previously (Schmitz et al., 1996; Dente et al., 1997; Gram et al., 1997). Briefly, phage particles were collected from culture supernatants by double precipitation with 20% polyethylene glycol 8000 in 2.5 M NaCl. Particles were dissolved at 10^12 particles/ml. Purified phage (10 μl) were incubated for 3 hours at room temperature with different concentrations (35 to 3,500 units) of protein kinases in a reaction buffer volume of 50 μl. The reaction mixtures were transferred to tubes containing 10 μg of agarose-conjugated anti-P-Tyr, anti-P-Ser, or anti-P-Thr monoclonal antibodies to select phage displaying phosphorylated peptides. […] Phosphorylated peptides binding to β3 and β5 cytoplasmic domains were analyzed as described in the previous section.
# Randomly selected clones from rounds III and IV were sequenced from a X4YX4 phosphorylated library with Fyn. […] The ratio of binding to β3 or β5 was calculated by dividing the number of β3 or β5 colonies by GST or BSA colonies found after panning. The ratio of binding to β3 or β5 with phosphorylated phage by Fyn versus unphosphorylated phage was calculated by dividing the number of colonies found after the panning. […]
# [7] = lower concentrations, not shown
# T2 sequence (Q07075 whole entry): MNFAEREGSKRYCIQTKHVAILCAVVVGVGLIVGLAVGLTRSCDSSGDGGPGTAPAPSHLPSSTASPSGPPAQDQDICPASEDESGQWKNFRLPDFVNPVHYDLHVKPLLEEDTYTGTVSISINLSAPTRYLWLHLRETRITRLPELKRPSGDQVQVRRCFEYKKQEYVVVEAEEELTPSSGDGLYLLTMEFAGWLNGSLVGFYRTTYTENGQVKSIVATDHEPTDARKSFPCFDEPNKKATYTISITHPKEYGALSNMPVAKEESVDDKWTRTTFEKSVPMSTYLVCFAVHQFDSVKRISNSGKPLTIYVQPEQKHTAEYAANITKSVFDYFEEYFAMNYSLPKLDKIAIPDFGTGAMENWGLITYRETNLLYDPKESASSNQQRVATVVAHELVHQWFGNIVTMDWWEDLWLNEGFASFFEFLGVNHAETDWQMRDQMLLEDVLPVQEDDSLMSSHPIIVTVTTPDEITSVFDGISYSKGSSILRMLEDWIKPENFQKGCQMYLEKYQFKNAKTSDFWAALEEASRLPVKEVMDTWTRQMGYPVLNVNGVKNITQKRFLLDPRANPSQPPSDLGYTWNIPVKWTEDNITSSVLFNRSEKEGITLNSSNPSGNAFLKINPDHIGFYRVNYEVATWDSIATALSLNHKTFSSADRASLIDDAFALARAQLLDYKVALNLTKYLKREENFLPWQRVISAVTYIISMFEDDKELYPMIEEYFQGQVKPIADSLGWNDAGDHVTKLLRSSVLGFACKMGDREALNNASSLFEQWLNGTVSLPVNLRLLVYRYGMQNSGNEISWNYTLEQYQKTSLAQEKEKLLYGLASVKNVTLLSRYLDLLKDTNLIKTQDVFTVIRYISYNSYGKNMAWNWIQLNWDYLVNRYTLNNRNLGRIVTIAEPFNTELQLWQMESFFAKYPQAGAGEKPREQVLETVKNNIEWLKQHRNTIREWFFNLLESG
# T1 sequence (Q07075 whole entry): as above
Phos/Unphos [6],Compound,"inhibition of chemotaxis of HUVECs (HUVECs [1]; 1 mM, VEGF-A 10 ng/ml, 5 h, FIG. 24) [%]",effect on cell migration (HUVECs [1]; [7]),"inhibition of HUVEC proliferation (HUVECs [2]; 1 mM, VEGF-A 10 ng/ml, FIG. 25) [%]",effect on cell proliferation (HUVECs [2]; [7]),reduction of APA enzyme activity [3] [%],"HUVEC morphogenesis / capillary-like network (HUVECs [4]; 1 mM, 24 h)",formation of capillary-like network (HUVECs [4]; increasing concentrations),competition with CPKVCPRECESNC phage for binding to SK-RC-49/APA cells (APA (SK-RC-49/APA cells)),"inhibition of VEGF-A-induced neovascularization (number of capillaries emerging from the sponge) ([5]; 1 mM, VEGF-A 20 ng, day 12) [%]","effect on the number of growing vessels ([5]; lower peptide concentrations, not shown)"
,CC[C@H](C)[C@H](NC(=O)[C@H](CO)NC(=O)[C@H](CCC(=O)O)NC(=O)[C@H](CS)NC(=O)[C@H](CCC(=O)O)NC(=O)[C@H](CCCNC(=N)N)NC(=O)[C@@H]1CCCN1C(=O)[C@@H](N)CS)C(=O)N[C@@H](CS)C(=O)O (H-CPRECESIC-OH),70,no significant effect,50,no significant effect,60,vessel-like branching structures were significantly fewer and shorter,progressive impairment of the formation of this network,competed,40,no effect
2.5,MLLGYRFEK,,,,,,,,,,
